≈ marks a conversion by molar mass, not a printed value.
Test system: Earthworm
Test: Earthworm toxicity test (Test Guidelines on Environmental Safety Assessment for Chemical Pesticides)
Type: in vivo
Details: cell adds 'low toxicity'
Experimental: (§1) According to the earthworm and edaphon toxicity test procedures as prescribed in the Test Guidelines on Environmental Safety Assessment for Chemical Pesticides, earthworm and edaphon toxicity tests are conducted on compounds 1 to 60 from Table 1. The simulative usual dose of pesticide in the edaphon test is 40 ppm.

Row | SMILES | Earthworm Toxicity LC50 (14 d)
1 | COc1ccc(C2OC(=O)CC2C(=O)OCCC(F)=C(F)F)cc1 (stereo not drawn) [Compound 39] | >10, low toxicity mg/L
2 | O=C1CC(C(=O)OCCC(F)=C(F)F)C(c2ccc(Cl)cc2F)O1 (stereo not drawn) [Compound 21] | >10, low toxicity mg/L
3 | Cc1ccc(Oc2ccccc2C2OC(=O)CC2C(=O)OCCC(F)=C(F)F)cc1 (stereo not drawn) [Compound 53] | >10, low toxicity mg/L
4 | O=C1CC(C(=O)OCCC(F)=C(F)F)C(c2c(F)cccc2Cl)O1 (stereo not drawn) [Compound 16] | >10, low toxicity mg/L
5 | COc1ccccc1C1OC(=O)CC1C(=O)OCCC=C(F)F (stereo not drawn) [Compound 34] | >10, low toxicity mg/L
6 | O=C1CC(C(=O)OCCC(F)=C(F)F)C(c2ccccc2Cl)O1 (stereo not drawn) [Compound 7] | >10, low toxicity mg/L
7 | O=C1CC(C(=O)OCCC(F)=C(F)F)C(c2cc(F)cc(Cl)c2)O1 (stereo not drawn) [Compound 24] | >10, low toxicity mg/L
8 | Cc1ccccc1C1OC(=O)CC1C(=O)OCCC=C(F)F (stereo not drawn) [Compound 2] | >10, low toxicity mg/L
9 | O=C1CC(C(=O)OCCC(F)=C(F)F)C(c2ccc(F)c(Cl)c2)O1 (stereo not drawn) [Compound 23] | >10, low toxicity mg/L
10 | O=C1CC(C(=O)OCCC(F)=C(F)F)C(c2cccc(F)c2)O1 (stereo not drawn) [Compound 27] | >10, low toxicity mg/L
11 | O=C1CC(C(=O)OCCC(F)=C(F)F)C(c2ccccc2OC(F)(F)F)O1 (stereo not drawn) [Compound 41] | >10, low toxicity mg/L
12 | COc1ccc(C2OC(=O)CC2C(=O)OCCC=C(F)F)cc1 (stereo not drawn) [Compound 38] | >10, low toxicity mg/L
13 | N#Cc1ccc(C2OC(=O)CC2C(=O)OCCC(F)=C(F)F)cc1 (stereo not drawn) [Compound 49] | >10, low toxicity mg/L
14 | COc1ccc(C2OC(=O)CC2C(=O)OCCC(F)=C(F)F)c(C(F)(F)F)c1 (stereo not drawn) [Compound 42] | >10, low toxicity mg/L
15 | O=C1CC(C(=O)OCCC(F)=C(F)F)C(c2cc(F)c(F)c(F)c2)O1 (stereo not drawn) [Compound 30] | >10, low toxicity mg/L

Test system: Nematode eggs
Test: Plant pathogenic nematode inhibition test by dipping: nematode egg hatch inhibition (NY/T 1154.5-2006)
Type: in vivo
Details: Test object: nematode eggs; dipping
Experimental: A plant pathogenic nematode inhibition test is conducted by dipping with the compounds in Table 1; and by referring to NY/T 1154.5-2006 (Part 5: Dipping Test for Insecticide Ovicidal Activity), the nematode egg hatch inhibition activity of the compounds is tested, as shown in Table 2: […]

Row | SMILES | LC50
16 | COc1ccccc1C1OC(=O)CC1C(=O)OCCC=C(F)F (stereo not drawn) [Compound 34] | 12.42 µg/mL (≈ 38.1 µM)
17 | O=C1CC(C(=O)OCCC(F)=C(F)F)C(c2ccccc2Cl)O1 (stereo not drawn) [Compound 7] | 12.81 µg/mL (≈ 36.7 µM)
18 | O=C1CC(C(=O)OCCC(F)=C(F)F)C(c2cc(F)cc(Cl)c2)O1 (stereo not drawn) [Compound 24] | 10.91 µg/mL (≈ 29.8 µM)
19 | O=C1CC(C(=O)OCCC(F)=C(F)F)C(c2cccc(F)c2)O1 (stereo not drawn) [Compound 27] | 7.85 µg/mL (≈ 23.6 µM)

Same assay, conditions: in vivo

Row | SMILES | LC50
20 | COc1ccc(C2OC(=O)CC2C(=O)OCCC(F)=C(F)F)cc1 (stereo not drawn) [Compound 39] | 11.85 µg/mL (≈ 34.4 µM)
21 | O=C1CC(C(=O)OCCC(F)=C(F)F)C(c2ccc(Cl)cc2F)O1 (stereo not drawn) [Compound 21] | 11.98 µg/mL (≈ 32.7 µM)
22 | Cc1ccc(Oc2ccccc2C2OC(=O)CC2C(=O)OCCC(F)=C(F)F)cc1 (stereo not drawn) [Compound 53] | 8.98 µg/mL (≈ 21.4 µM)
23 | O=C1CC(C(=O)OCCC(F)=C(F)F)C(c2c(F)cccc2Cl)O1 (stereo not drawn) [Compound 16] | 10.91 µg/mL (≈ 29.8 µM)
24 | Cc1ccccc1C1OC(=O)CC1C(=O)OCCC=C(F)F (stereo not drawn) [Compound 2] | 9.81 µg/mL (≈ 31.6 µM)
25 | O=C1CC(C(=O)OCCC(F)=C(F)F)C(c2ccc(F)c(Cl)c2)O1 (stereo not drawn) [Compound 23] | 10.23 µg/mL (≈ 27.9 µM)
26 | O=C1CC(C(=O)OCCC(F)=C(F)F)C(c2ccccc2OC(F)(F)F)O1 (stereo not drawn) [Compound 41] | 11.41 µg/mL (≈ 28.6 µM)
27 | COc1ccc(C2OC(=O)CC2C(=O)OCCC=C(F)F)cc1 (stereo not drawn) [Compound 38] | 12.14 µg/mL (≈ 37.2 µM)
28 | N#Cc1ccc(C2OC(=O)CC2C(=O)OCCC(F)=C(F)F)cc1 (stereo not drawn) [Compound 49] | 10.36 µg/mL (≈ 30.5 µM)
29 | COc1ccc(C2OC(=O)CC2C(=O)OCCC(F)=C(F)F)c(C(F)(F)F)c1 (stereo not drawn) [Compound 42] | 12.39 µg/mL (≈ 30.1 µM)
30 | O=C1CC(C(=O)OCCC(F)=C(F)F)C(c2cc(F)c(F)c(F)c2)O1 (stereo not drawn) [Compound 30] | 9.73 µg/mL (≈ 26.4 µM)

Test system: Nematode J2
Test: Plant pathogenic nematode inhibition test by dipping: second-stage juveniles
Type: in vivo
Details: Test object: nematode J2 (second-stage juveniles); dipping

Row | SMILES | LC50
31 | COc1ccccc1C1OC(=O)CC1C(=O)OCCC=C(F)F (stereo not drawn) [Compound 34] | 13.10 µg/mL (≈ 40.1 µM)
32 | O=C1CC(C(=O)OCCC(F)=C(F)F)C(c2ccccc2Cl)O1 (stereo not drawn) [Compound 7] | 13.25 µg/mL (≈ 38 µM)
33 | O=C1CC(C(=O)OCCC(F)=C(F)F)C(c2cc(F)cc(Cl)c2)O1 (stereo not drawn) [Compound 24] | 12.24 µg/mL (≈ 33.4 µM)
34 | O=C1CC(C(=O)OCCC(F)=C(F)F)C(c2cccc(F)c2)O1 (stereo not drawn) [Compound 27] | 8.91 µg/mL (≈ 26.8 µM)

Same assay, conditions: in vivo

Row | SMILES | LC50
35 | COc1ccc(C2OC(=O)CC2C(=O)OCCC(F)=C(F)F)cc1 (stereo not drawn) [Compound 39] | 13.40 µg/mL (≈ 38.9 µM)
36 | O=C1CC(C(=O)OCCC(F)=C(F)F)C(c2ccc(Cl)cc2F)O1 (stereo not drawn) [Compound 21] | 13.74 µg/mL (≈ 37.5 µM)
37 | Cc1ccc(Oc2ccccc2C2OC(=O)CC2C(=O)OCCC(F)=C(F)F)cc1 (stereo not drawn) [Compound 53] | 12.35 µg/mL (≈ 29.4 µM)
38 | O=C1CC(C(=O)OCCC(F)=C(F)F)C(c2c(F)cccc2Cl)O1 (stereo not drawn) [Compound 16] | 12.25 µg/mL (≈ 33.4 µM)
39 | Cc1ccccc1C1OC(=O)CC1C(=O)OCCC=C(F)F (stereo not drawn) [Compound 2] | 10.14 µg/mL (≈ 32.7 µM)
40 | O=C1CC(C(=O)OCCC(F)=C(F)F)C(c2ccc(F)c(Cl)c2)O1 (stereo not drawn) [Compound 23] | 11.24 µg/mL (≈ 30.7 µM)
41 | O=C1CC(C(=O)OCCC(F)=C(F)F)C(c2ccccc2OC(F)(F)F)O1 (stereo not drawn) [Compound 41] | 13.86 µg/mL (≈ 34.8 µM)
42 | COc1ccc(C2OC(=O)CC2C(=O)OCCC=C(F)F)cc1 (stereo not drawn) [Compound 38] | 13.40 µg/mL (≈ 41.1 µM)
43 | N#Cc1ccc(C2OC(=O)CC2C(=O)OCCC(F)=C(F)F)cc1 (stereo not drawn) [Compound 49] | 11.35 µg/mL (≈ 33.5 µM)
44 | COc1ccc(C2OC(=O)CC2C(=O)OCCC(F)=C(F)F)c(C(F)(F)F)c1 (stereo not drawn) [Compound 42] | 10.40 µg/mL (≈ 25.2 µM)
45 | O=C1CC(C(=O)OCCC(F)=C(F)F)C(c2cc(F)c(F)c(F)c2)O1 (stereo not drawn) [Compound 30] | 10.96 µg/mL (≈ 29.8 µM)

Test system: Edaphon
Test: Edaphon toxicity test (Test Guidelines on Environmental Safety Assessment for Chemical Pesticides)
Details: not given
Experimental: as §1

Row | SMILES | Edaphon Toxicity (15 d) (Inhibition ratio when added amount is 100 times of usual dose)
46 | O=C1CC(C(=O)OCCC(F)=C(F)F)C(c2cccc(F)c2)O1 (stereo not drawn) [Compound 27] | <50%, low toxicity

Same assay, conditions: 15 d; 100 times of usual dose (simulative usual dose 40 ppm); cell adds 'low toxicity'

Row | SMILES | Edaphon Toxicity (15 d) (Inhibition ratio when added amount is 100 times of usual dose)
47 | COc1ccc(C2OC(=O)CC2C(=O)OCCC(F)=C(F)F)cc1 (stereo not drawn) [Compound 39] | <50%, low toxicity
48 | O=C1CC(C(=O)OCCC(F)=C(F)F)C(c2ccc(Cl)cc2F)O1 (stereo not drawn) [Compound 21] | <50%, low toxicity
49 | Cc1ccc(Oc2ccccc2C2OC(=O)CC2C(=O)OCCC(F)=C(F)F)cc1 (stereo not drawn) [Compound 53] | <50%, low toxicity
50 | O=C1CC(C(=O)OCCC(F)=C(F)F)C(c2c(F)cccc2Cl)O1 (stereo not drawn) [Compound 16] | <50%, low toxicity
51 | COc1ccccc1C1OC(=O)CC1C(=O)OCCC=C(F)F (stereo not drawn) [Compound 34] | <50%, low toxicity
52 | O=C1CC(C(=O)OCCC(F)=C(F)F)C(c2ccccc2Cl)O1 (stereo not drawn) [Compound 7] | <50%, low toxicity
53 | O=C1CC(C(=O)OCCC(F)=C(F)F)C(c2cc(F)cc(Cl)c2)O1 (stereo not drawn) [Compound 24] | <50%, low toxicity
54 | Cc1ccccc1C1OC(=O)CC1C(=O)OCCC=C(F)F (stereo not drawn) [Compound 2] | <50%, low toxicity
55 | O=C1CC(C(=O)OCCC(F)=C(F)F)C(c2ccc(F)c(Cl)c2)O1 (stereo not drawn) [Compound 23] | <50%, low toxicity
56 | O=C1CC(C(=O)OCCC(F)=C(F)F)C(c2ccccc2OC(F)(F)F)O1 (stereo not drawn) [Compound 41] | <50%, low toxicity
57 | COc1ccc(C2OC(=O)CC2C(=O)OCCC=C(F)F)cc1 (stereo not drawn) [Compound 38] | <50%, low toxicity
58 | N#Cc1ccc(C2OC(=O)CC2C(=O)OCCC(F)=C(F)F)cc1 (stereo not drawn) [Compound 49] | <50%, low toxicity
59 | COc1ccc(C2OC(=O)CC2C(=O)OCCC(F)=C(F)F)c(C(F)(F)F)c1 (stereo not drawn) [Compound 42] | <50%, low toxicity
60 | O=C1CC(C(=O)OCCC(F)=C(F)F)C(c2cc(F)c(F)c(F)c2)O1 (stereo not drawn) [Compound 30] | <50%, low toxicity
